From US20100075965A1, “PI3 KINASE INHIBITORS AND METHODS OF THEIR USE” (Novartis AG, priority 2006, published 2010)
Like-named read-outs stand apart in the source and are kept apart here.

How the values were obtained:
[1] = target: PI3 K Alpha (Homo sapiens, UniProt P42336); test: PI3 kinase phosphorylation assays (homogenous solution phase, one step solid phase, ATP depletion/KinaseGlo); assay type: biochemical
Method: Compounds to be tested are dissolved in DMSO and directly distributed into 384-well flashplates at 1.25 μL per well. To start the reaction, 20 μL of 6 nM PI3 kinase are added into each well followed by 20 μL of 400 nM ATP containing a trace of radiolabeled ATP and 900 nM 1-alpha-phosphatidylinositol (PI). The plates are briefly centrifuged to remove any air gap. The reaction is performed for 15 minutes and then stopped by the addition of 20 μL of 100 mM EDTA. The stopped reaction is incubated overnight at RT to allow the lipid substrate to bind by hydrophobic interaction to the surface of the flashplate. The liquid in the wells is then washed away, and the labeled substrate is detected with scintillation counting.
This method is similar to Assay 1 except that the lipid substrate (1-alpha-phosphatidylinositol (PI)) is first dissolved in a coating buffer and incubated on flashplate at room temperature overnight to allow the lipid substrate to bind by hydrophobic interaction to the surface of the flashplate. Unbound substrate is then washed away. On the day of assay, 20 μL of 6 nM PI3 kinase are added into each well followed by 20 μL of 400 nM ATP containing trace of radiolabeled ATP. Compounds are added together with enzyme and ATP to the lipid-coated plates. The plates are briefly centrifuged to remove any air gap. The reaction is performed for two to three hours. The reaction is stopped by addition of 20 μL of 100 mM EDTA or by immediate plate washing. Phosphorylated lipid substrate is detected by scintillation counting.
Compounds to be tested are dissolved in DMSO and directly distributed into a black 384-well plate at 1.25 μL per well. To start the reaction, 25 μL of 10 nM PI3 kinase and 5 μg/mL 1-alpha-phosphatidylinositol (PI) are added into each well followed by 25 μL of 2 μM ATP. The reaction is performed until approx 50% of the ATP is depleted, and then stopped by the addition of 25 μL of KinaseGlo solution. The stopped reaction is incubated for 5 minutes and the remaining ATP is then detected via luminescence.

[2] = test system: A2780 cells; test: Viability assay in A2780 (Cell Titer Glo); assay type: cell-based, human; details: Homo sapiens, A2780 cells, read-out: A2780 Cell prolif. EC50
Method: Cell viability was assessed with Cell Titer Glo assay, Promega. Cells were seeded in TC treated 96-well plates at a density of 1,000 (A2780 cells) per well in DMEM with 10% FBS, 1% Sodium Pyruvate, and 1% Penicillin Streptomycin for a minimum of 2 hrs prior to addition of compound. Test compounds were serially diluted (3 fold) in DMSO to 500× the final concentration. For each concentration of test compound, 2 μL (500×) aliquots of compound or 100% DMSO (control) were diluted in 500 μL of culture medium to 2× final concentration then diluted 1× on the cells. Cells were incubated for 72 hrs at 37° C., 5% CO2. After which Cell Titer Glo is added to determine viable cells, the assay was performed according to the manufacturer's instruction (Promega Corporation, Madison, Wis. USA). Each experimental condition was performed in duplicate. Raw data was imported in Abase and EC50s calculated with XL-fit data analysis software and are shown in Tables 1 and 2 in the column labeled “A2780 Cell prolif. EC50”.

Chain of PI3 K Alpha (P42336 whole entry): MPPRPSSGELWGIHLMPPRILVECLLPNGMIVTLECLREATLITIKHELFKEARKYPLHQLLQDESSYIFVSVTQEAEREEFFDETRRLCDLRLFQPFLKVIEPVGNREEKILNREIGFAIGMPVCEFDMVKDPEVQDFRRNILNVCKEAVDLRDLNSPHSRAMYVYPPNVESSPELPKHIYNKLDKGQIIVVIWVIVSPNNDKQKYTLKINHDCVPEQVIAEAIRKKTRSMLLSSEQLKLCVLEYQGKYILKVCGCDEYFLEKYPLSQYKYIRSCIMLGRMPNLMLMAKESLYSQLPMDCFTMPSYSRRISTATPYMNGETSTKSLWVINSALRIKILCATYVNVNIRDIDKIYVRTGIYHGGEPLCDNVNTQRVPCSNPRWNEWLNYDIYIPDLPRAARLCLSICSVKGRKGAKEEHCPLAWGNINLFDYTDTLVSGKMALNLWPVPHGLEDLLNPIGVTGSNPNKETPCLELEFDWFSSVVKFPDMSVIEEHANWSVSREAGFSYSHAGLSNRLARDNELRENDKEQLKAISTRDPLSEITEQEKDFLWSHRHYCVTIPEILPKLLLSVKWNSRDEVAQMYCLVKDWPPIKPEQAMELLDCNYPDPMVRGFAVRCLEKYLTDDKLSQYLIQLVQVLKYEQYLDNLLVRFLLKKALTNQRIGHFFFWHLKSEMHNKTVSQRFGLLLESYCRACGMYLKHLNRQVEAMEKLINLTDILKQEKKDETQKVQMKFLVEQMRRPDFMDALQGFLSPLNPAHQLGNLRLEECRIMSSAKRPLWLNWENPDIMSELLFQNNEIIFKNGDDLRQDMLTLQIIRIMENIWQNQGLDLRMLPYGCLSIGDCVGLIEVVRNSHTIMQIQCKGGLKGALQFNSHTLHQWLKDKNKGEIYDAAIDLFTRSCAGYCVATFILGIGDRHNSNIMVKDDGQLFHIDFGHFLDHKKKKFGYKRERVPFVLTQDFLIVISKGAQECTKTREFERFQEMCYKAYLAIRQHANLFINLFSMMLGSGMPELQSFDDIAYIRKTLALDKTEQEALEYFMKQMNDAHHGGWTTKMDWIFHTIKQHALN
Chain of PI3 K Alpha (P27986 whole entry partner): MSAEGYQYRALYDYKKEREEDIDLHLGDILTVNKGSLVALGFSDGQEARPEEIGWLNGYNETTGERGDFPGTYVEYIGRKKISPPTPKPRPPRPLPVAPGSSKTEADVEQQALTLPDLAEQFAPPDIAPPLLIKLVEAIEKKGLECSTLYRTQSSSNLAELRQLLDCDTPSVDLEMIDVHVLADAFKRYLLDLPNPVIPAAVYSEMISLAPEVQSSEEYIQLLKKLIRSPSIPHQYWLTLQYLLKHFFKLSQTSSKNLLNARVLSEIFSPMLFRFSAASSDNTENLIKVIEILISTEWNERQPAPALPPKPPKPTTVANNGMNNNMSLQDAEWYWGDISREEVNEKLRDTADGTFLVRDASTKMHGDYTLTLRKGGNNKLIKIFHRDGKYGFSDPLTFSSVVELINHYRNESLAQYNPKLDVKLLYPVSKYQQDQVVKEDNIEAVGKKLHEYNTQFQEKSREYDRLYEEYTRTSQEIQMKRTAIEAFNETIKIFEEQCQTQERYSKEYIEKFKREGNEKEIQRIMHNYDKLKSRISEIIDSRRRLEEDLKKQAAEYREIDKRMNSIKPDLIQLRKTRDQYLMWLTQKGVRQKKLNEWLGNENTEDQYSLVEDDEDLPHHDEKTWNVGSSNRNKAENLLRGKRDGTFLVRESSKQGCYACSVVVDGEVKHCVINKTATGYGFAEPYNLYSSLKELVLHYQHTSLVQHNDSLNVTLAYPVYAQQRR

SMILES | IC50 ([1]; ATP depletion assay, read-out: PI3 K Alpha IC50) [µM] | EC50 ([2]; 72 hrs) [µM] | IC50 ([1]; read-out: PI3K Alpha IC50) [µM] | EC50 [2] [µM]
Nc1ccc(C(=O)Nc2nc3ccc(-c4cnc(N)c(C(F)(F)F)c4)cc3s2)cn1 [Example 2-34, 6-amino-N-(6-(6-amino-5-(trifluoromethyl)pyridin-3-yl)benzo[d]thiazol-2-yl)nicotinamide] | < 1 | < 1 |  | 
CNC(=O)[C@@H]1CCN1C(=O)Nc1cn2cc(-c3cnc(N)c(C(F)(F)F)c3)ccc2n1 [Example 36, (S)-N1-(6-(6-amino-5-(trifluoromethyl)pyridin-3-yl)imidazo[1,2-a]pyridin-2-yl)-N2-methylazetidine-1,2-dicarboxamide] |  |  | < 25 | < 25
COc1c(-c2cnc(N)c(C(F)(F)F)c2)ccc2nc(NC(=O)C(F)(F)F)cn12 [Example 37, N-(6-(6-amino-5-(trifluoromethyl)pyridin-3-yl)-5-methoxy-imidazo[1,2-a]pyridin-2-yl)-2,2,2-trifluoroacetamide] |  |  | < 25 | < 25
Nc1ncc(-c2ccc3nc(NC(=O)[C@@H]4CCCN4)cn3c2)cc1C(F)(F)F [Example 38, (S)-N-(6-(6-amino-5-(trifluoromethyl)pyridin-3-yl)imidazo[1,2-a]pyridin-2-yl)pyrrolidine-2-carboxamide] |  |  | < 25 | < 10
Nc1ncc(-c2ccc3nc(NC(=O)C(F)(F)F)cn3c2O)cc1C(F)(F)F [Example 41] |  |  | < 10 | < 25
CCN(CC)CCOc1cc(-c2ccc3nc(NC(C)=O)cn3c2)cnc1N [Example 42, N-(6-(6-amino-5-(2-(diethylamino)ethoxy)pyridin-3-yl)imidazo[1,2-a]pyridin-2-yl)acetamide] |  |  | < 10 | < 25
COc1cc(-c2ccc3nc(NC(C)=O)cn3n2)c(C)nc1N [Example 43, N-(6-(6-amino-5-methoxy-2-methylpyridin-3-yl)imidazo[1,2-b]pyridazin-2-yl)acetamide] |  |  | < 10 | < 25
CC(C)(C(=O)Nc1cn2cc(-c3cnc(N)c(C(F)(F)F)c3)ccc2n1)c1ccccc1 [Example 44] |  |  | < 10 | < 25
Nc1ncc(-c2ccc3nc(NC(=O)N4CC[C@H]4C(=O)O)cn3c2)cc1C(F)(F)F [Example 45, (S)-1-(6-(6-amino-5-(trifluoromethyl)pyridin-3-yl)imidazo[1,2-a]pyridin-2-ylcarbamoyl) azetidine-2-carboxylic acid] |  |  | < 10 | < 25

The next lines start with the values.

IC50 ([1]; ATP depletion assay, read-out: PI3 K Alpha IC50) [µM] | EC50 ([2]; 72 hrs) [µM] | IC50 ([1]; read-out: PI3K Alpha IC50) [µM] | EC50 [2] [µM] | SMILES
 |  | < 1 | < 25 | CC(=O)Nc1cccc(-c2c(NC(C)=O)nc3ccc(-c4cnc(N)c(C(F)(F)F)c4)cn23)c1 [Example 9, N-[3-(3-Acetylamino-phenyl)-6-(6-amino-5-trifluoromethyl-pyridin-3-yl)-imidazo[1,2-a]pyridin-2-yl]-acetamide]
 |  | < 1 | < 25 | CC(=O)Nc1nc2ccc(-c3cnc(N)c(C(F)(F)F)c3)cn2c1-c1cccc(F)c1 [Example 10, N-[6-(6-Amino-5-trifluoromethyl-pyridin-3-yl)-3-(3-fluoro-phenyl)-imidazo[1,2-a]pyridin-2-yl]-acetamide]
 |  | < 1 | < 10 | CC(=O)Nc1nc2ccc(-c3cnc(N)c(Br)c3)cn2c1Br [Example 15, N-[6-(6-Amino-5-bromo-pyridin-3-yl)-3-bromo-imidazo[1,2-a]pyridin-2-yl]-acetamide]
 |  | < 1 | < 25 | CC(=O)Nc1cn2nc(-c3cnc(N)cc3C(F)(F)F)ccc2n1 [Example 24, N-[6-(6-Amino-4-trifluoromethyl-pyridin-3-yl)-imidazo[1,2-b]pyridazin-2-yl]-acetamide]
 |  | < 1 | < 25 | CCCc1c(NC(C)=O)nc2ccc(-c3cnc(N)c(C(F)(F)F)c3)cn12 [Example 31, N-[6-(6-Amino-5-trifluoromethyl-pyridin-3-yl)-3-propyl-imidazo[1,2-a]pyridin-2-yl]-acetamide]
 |  | < 10 | < 25 | CC(=O)Nc1cn2cc(-c3cnc(N)c(OC4CCN(C)CC4)n3)ccc2n1 [Example 40, N-(6-(5-amino-6-(1-methylpiperidin-4-yloxy)pyrazin-2-yl)imidazo[1,2-a]pyridin-2-yl)acetamide]
